PubChem BioAssay (NCI)
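Method: 48-hour compound exposure of cells in 96-well plates, five concentrations, linear interpolation of endpoints. GI50 = concentration required for 50% inhibition of growth. TGI is the concentration that stops growth completely.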

Key:
Experiment in all cases: growth of human tumour cells (NCI), 48 h
BT-549 breast = tested on: BT-549 breast
HL-60(TB) leukemia = tested on: HL-60(TB) leukemia
HOP-92 NSCLC = tested on: HOP-92 NSCLC
CAKI-1 renal = tested on: CAKI-1 renal
OVCAR-4 ovarian = tested on: OVCAR-4 ovarian
HS 578T breast = tested on: HS 578T breast
EKVX NSCLC = tested on: EKVX NSCLC
HCC-2998 colon = tested on: HCC-2998 colon
U251 CNS = tested on: U251 CNS
SR leukemia = tested on: SR leukemia

| SMILES | GI50 (BT-549 breast) [µM] | TGI (BT-549 breast) [µM] | GI50 (HL-60(TB) leukemia) [µM] | TGI (HL-60(TB) leukemia) [µM] | GI50 (HOP-92 NSCLC) [µM] | GI50 (CAKI-1 renal) [µM] | TGI (CAKI-1 renal) [µM] | GI50 (OVCAR-4 ovarian) [µM] | TGI (OVCAR-4 ovarian) [µM] | GI50 (HS 578T breast) [µM] | TGI (HS 578T breast) [µM] | GI50 (EKVX NSCLC) [µM] | TGI (EKVX NSCLC) [µM] | GI50 (HCC-2998 colon) [µM] | TGI (HCC-2998 colon) [µM] | TGI (HOP-92 NSCLC) [µM] | TGI (U251 CNS) [µM] | GI50 (SR leukemia) [µM] | TGI (SR leukemia) [µM] | GI50 (U251 CNS) [µM] |
| --- | --- | --- | --- | --- | --- | --- | --- | --- | --- | --- | --- | --- | --- | --- | --- | --- | --- | --- | --- | --- |
| COc1cccc2c1C(=O)c1c(O)c3c(c(O)c1C2=O)CC(O)(/C(C)=N/NC(=O)CCC(=O)N/N=C(\C)C1(O)Cc2c(O)c4c(c(O)c2C(OC2CC(N)C(O)C(C)O2)C1)C(=O)c1c(OC)cccc1C4=O)CC3OC1CC(N)C(O)C(C)O1 (stereo not given) | 0.671 | 2.27 | 0.397 | 4.23 | 0.438 | 0.895 | 17.7 | 0.885 | > 21.4 | 0.261 | 2.3 | 1.12 | 22.1 | 0.508 | 1.46 | – | – | – | – | – |
| O=C1c2ccccc2C2(O)c3cc4ccccc4cc3OC12O (stereo not given) | – | – | – | – | – | – | > 100 | – | > 100 | – | – | – | > 100 | – | > 100 | 80.4 | > 100 | – | – | – |
| CCCCCCC[CH2][Sn]1([CH2]CCCCCCC)[O]C(=O)c2cccnc2[S]1 | – | – | > 100 | > 100 | > 100 | > 100 | > 100 | > 100 | > 100 | – | – | > 100 | > 100 | > 100 | > 100 | > 100 | > 100 | > 100 | > 100 | > 100 |
| O=C(O)CSc1n[nH]c(-c2ccccc2)n1 | – | – | – | > 100 | – | – | > 100 | – | > 100 | – | – | – | > 100 | – | > 100 | – | > 100 | – | – | – |
| Cc1c(Cl)cccc1N1C(=O)C(Cl)=C(Cl)C1=O | – | – | – | – | – | – | > 80.9 | – | > 100 | – | – | – | > 100 | – | > 100 | > 100 | > 100 | – | 79.6 | – |
| NS(=O)(=O)c1ccc(N(/C=C/C(=O)C(F)(F)F)CC(=O)c2ccc(Cl)cc2)cc1 | 44.5 | > 100 | – | – | 22.3 | 24.4 | 66 | 60 | > 100 | > 100 | > 100 | 54.2 | > 100 | 55.7 | > 100 | 86.7 | > 100 | – | – | 33 |
| CCC1C2C=CC(CC2)N1S(=O)(=O)c1ccc(C)cc1 (stereo not given) | – | – | – | 19.5 | – | – | > 100 | – | > 100 | – | – | – | > 100 | – | – | – | – | – | 72.3 | – |
| CCOC(=O)C1(c2ccccc2)CCC(=O)CC1 | – | – | – | > 100 | – | – | > 100 | – | > 100 | – | – | – | > 100 | – | > 100 | > 100 | > 100 | – | – | – |
| COc1ccc(/C(=N\NC(=O)C(N)=O)C(c2ccc(OC)cc2)C2(O)C(=O)Nc3c(Cl)cccc32)cc1 (stereo not given) | – | – | – | > 100 | – | – | – | – | > 100 | – | – | – | > 100 | – | > 100 | > 100 | > 100 | – | – | – |
| COc1ccc(NC(=O)/C(N=O)=C(/C)O)cc1 | – | – | – | > 100 | – | – | > 100 | – | – | – | – | – | > 100 | – | > 100 | > 100 | > 100 | – | > 100 | – |
| O=C(O)[C@H](NS(=O)(=O)c1ccc2ccccc2c1)c1ccccc1 | – | – | – | > 100 | – | – | > 100 | – | > 100 | – | – | – | – | – | > 100 | > 100 | > 100 | – | – | – |
| Cn1cnc([N+](=O)[O-])c1S(=O)(=O)Oc1ccccc1 | 20.7 | 45.4 | 12.1 | 34.4 | 5.85 | 1.66 | 3.41 | 3.22 | 15.1 | 24.6 | > 80.5 | 17 | 41.2 | 19.3 | 40.7 | 19.1 | > 66.3 | – | – | 23.5 |
| Cc1ccc(Cn2c(C)nc3c2C(=O)c2ccccc2C3=O)cc1 | – | – | – | 41 | – | – | – | – | 63.4 | – | – | – | > 100 | – | > 100 | – | 22.8 | – | > 100 | – |
| Cc1ccc(S(=O)(=O)N/N=C/c2oc(-c3ccncc3)c(-c3ccncc3)c2[N+](=O)[O-])cc1 | – | – | – | > 100 | – | – | > 100 | – | > 100 | – | – | – | > 100 | – | > 100 | – | > 100 | – | > 100 | – |
| COC1[C@@H](OC(C)=O)[C@@H](NC(=O)C(Cl)(Cl)Cl)C(I)[C@@H](N2C(=O)c3ccccc3C2=O)[C@H]1OC (stereo not given in full) | – | – | – | > 100 | – | – | – | – | > 100 | – | – | – | > 100 | – | – | > 100 | > 100 | – | > 100 | – |
| CCOC(=O)C(C)(C)Oc1ccc2c(C)c(-c3ccc(Cl)cc3)c(=O)oc2c1 | – | – | – | > 100 | – | – | – | – | > 100 | – | – | – | > 100 | – | > 100 | – | > 100 | – | > 100 | – |
| O=C(NCCCCN=c1cccccc1NCCCCNC(=O)OCc1ccccc1)OCc1ccccc1 | – | – | – | 31.3 | – | – | 37.9 | – | 57.5 | – | – | – | 81.4 | – | 32.1 | 20.1 | 32.1 | – | – | – |
| CC1=C2CCCC2=C/C(=N/Nc2ccc([N+](=O)[O-])cc2[N+](=O)[O-])CC1 | – | – | – | > 100 | – | – | > 100 | – | > 100 | – | – | – | > 100 | – | – | > 100 | > 100 | – | > 100 | – |
| O=[N+]([O-])c1ccc(-n2nnc(C3=NCCN3)c2-c2ccc(Cl)cc2)cc1 | – | – | – | > 100 | – | – | > 100 | – | > 100 | – | – | – | > 100 | – | > 100 | > 100 | > 100 | – | > 100 | – |
| CCN1CCN=c2c3cc(OC)ccc3n3cnc4ccc1c2c43 | – | – | – | 0.483 | – | – | – | – | 1.86 | – | 0.866 | – | 2.33 | – | 0.94 | 6.32 | 1.05 | – | 0.158 | – |
| O=c1cc2oc3cc(O)c(O)cc3c(-c3ccccc3O)c-2cc1O | 14.4 | 40.3 | 33.5 | 99.6 | 30.3 | 3.04 | 11.1 | 11.5 | > 100 | – | – | 29.2 | > 100 | – | – | > 100 | > 100 | 4.65 | > 100 | 4.6 |
| COc1c(OC)c(OC)c(C(=O)/C=C/c2ccccc2)c(OC)c1OC | – | 18.1 | – | 38.2 | – | – | 28.4 | – | 30.7 | – | > 100 | – | 35.5 | – | 29.7 | 17.9 | 20.5 | – | – | – |
